Literature values as cited in patent publication US8535722B2, “Functionally graded biocompatible coating and coated implant” (priority 2005, dated 2013).

## [Ag] [Ag/Ag^+, silver]
  threshold of cytotoxicity in vivo: 10 ppm
